Structures can show the parent of a compound that is named as a salt.

Consider 13 compounds from patent publication US20250100995A1, “CEREBLON BINDING COMPOUNDS, COMPOSITIONS THEREOF, AND METHODS OF TREATMENT THEREWITH” (CELGENE CORPORATION, priority 2021, published 2025).

This experiment has as its target T1, AR (Homo sapiens, UniProt P10275).
T1 construct: endogenous in cells; host or cells: VCaP cells
T1 sequence (P10275 1-920): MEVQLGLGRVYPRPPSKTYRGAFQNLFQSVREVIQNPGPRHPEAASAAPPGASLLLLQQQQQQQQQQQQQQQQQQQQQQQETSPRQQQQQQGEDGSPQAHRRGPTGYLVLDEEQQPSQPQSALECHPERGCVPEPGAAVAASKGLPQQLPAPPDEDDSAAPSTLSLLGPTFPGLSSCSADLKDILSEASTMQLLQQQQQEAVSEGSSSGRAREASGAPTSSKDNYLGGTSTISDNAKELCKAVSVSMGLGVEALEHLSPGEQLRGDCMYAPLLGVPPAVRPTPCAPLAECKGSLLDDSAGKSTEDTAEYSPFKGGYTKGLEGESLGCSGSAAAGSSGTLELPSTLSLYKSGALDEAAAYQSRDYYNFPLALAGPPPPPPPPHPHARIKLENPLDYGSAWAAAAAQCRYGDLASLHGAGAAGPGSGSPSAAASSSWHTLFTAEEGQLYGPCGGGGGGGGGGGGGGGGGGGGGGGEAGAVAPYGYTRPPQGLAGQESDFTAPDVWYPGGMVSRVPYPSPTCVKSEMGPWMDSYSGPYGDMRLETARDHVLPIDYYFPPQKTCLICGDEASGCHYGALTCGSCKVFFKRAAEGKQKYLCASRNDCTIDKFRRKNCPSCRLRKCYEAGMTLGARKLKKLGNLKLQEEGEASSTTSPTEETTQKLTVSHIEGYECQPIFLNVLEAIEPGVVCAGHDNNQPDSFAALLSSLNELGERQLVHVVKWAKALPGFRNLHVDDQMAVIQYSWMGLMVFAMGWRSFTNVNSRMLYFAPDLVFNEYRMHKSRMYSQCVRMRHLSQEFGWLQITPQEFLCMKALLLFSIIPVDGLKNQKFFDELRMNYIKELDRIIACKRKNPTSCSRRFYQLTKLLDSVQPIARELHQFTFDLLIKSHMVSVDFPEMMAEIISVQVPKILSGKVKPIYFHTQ
The experiment is described as follows: VCAP AR Degradation Assay. Type of experiment: cell-based. To be noted: VCaP cells, 24 h, AR ELISA; for DC50: concentration of compound when AR level = 50% of DMSO control; for Y: lowest measured AR level normalized to DMSO control (AR degradation efficiency). How it is done: VCAP AR Degradation Assay. Test compounds were pre-dispensed into a Corning CellBind 96-well clear bottom plate (Cat #3300) using an acoustic dispenser to make a 10-point concentration series at 1:3 dilution for each compound. The final top concentration of each compound was 5 μM. DMSO at a final concentration of 0.1% was used as a control. VCaP cells cultured in DMEM with 8% fetal bovine serum (FBS) were seeded at 50K cells per well in a 200 μL volume into the compound plate and incubated at 37° C. in a CO2 incubator for 24 h. The medium was carefully removed from the cells and the plate was placed on ice. One hundred μL of ice-cold 1× cell lysis buffer from Cell Signaling Technologies (Cat #9803) was added to each well of the cells and the plate was incubated at 4° C. on a shaker for 1 h. Fifteen μL of cell lysate was used for AR ELISA detection using a PathScan Total Sandwich AR ELISA kit (Cell Signaling Technology, Cat #12580). AR levels in compound-treated wells were normalized to that of DMSO control and expressed as percent of control (PoC) (y). A Four Parameter Logistic Model (Sigmoidal Dose-Response Model) was used to determine the compound's DC50, and EC50, using the following equation: […]
The lowest measured AR level normalized to DMSO control in response to compound treatment, termed Y value, was used to characterize the compound-mediated AR degradation efficiency.

In the case of `C[C@@H]1CN(CCO[C@H]2CC[C@H](N3C(=S)N(c4ccc(C#N)c(C(F)(F)F)c4)C(=O)C3(C)C)CC2)C[C@H](C)N1CC(=O)Nc1cc(C2CCC(=O)NC2=O)ccn1` (stereo partly drawn) [Cmpd 1, 2-((2R,6S)-4-(2-((trans-4-(3-(4-Cyano-3-(trifluoromethyl)phenyl)-5,5-dimethyl-4-oxo-2-thioxoimidazolidin-1-yl)cyclohexyl)oxy)ethyl)-2,6-dimethylpiperazin-1-yl)-N-(4-(2,6-dioxopiperidin-3-yl)pyridin-2-yl)acetamide hydrochloride], the DC50 is 5 to 50 nM and the Y entry is “** (20%<Y≤40%)”.

On to `C[C@@H]1CN(CCO[C@H]2CC[C@H](N3C(=S)N(c4ccc(C#N)c(Cl)c4)C(=O)C3(C)C)CC2)C[C@H](C)N1CC(=O)Nc1cc(C2CCC(=O)NC2=O)ccn1` (stereo partly drawn) [Cmpd 4, 2-((2R,6S)-4-(2-((trans-4-(3-(3-Chloro-4-cyanophenyl)-5,5-dimethyl-4-oxo-2-thioxoimidazolidin-1-yl)cyclohexyl)oxy)ethyl)-2,6-dimethylpiperazin-1-yl)-N-(4-(2,6-dioxopiperidin-3-yl)pyridin-2-yl)acetamide hydrochloride], for which the 50% degradation concentration (DC50) is 5 to 50 nM and the Y result is “** (20%<Y≤40%)”.

Consider `C[C@@H]1CN(CCO[C@H]2CC[C@H](N3C(=S)N(c4ccc(C#N)c(C(F)(F)F)c4)C(=O)C3(C)C)CC2)C[C@H](C)N1CC(=O)Nc1cc(C2(C)CCC(=O)NC2=O)ccn1` (single isomer, unassigned) [Cmpd 8, hydrochloride], for which the 50% degradation concentration (DC50) was no more than 5 nM. Where the note is “hydrochloride”, the Y result is given as “* (0<Y≤20%)”.

In the case of `CC1(C)C(=O)N(c2ccc(C#N)c(C(F)(F)F)c2)C(=S)N1[C@H]1CC[C@H](CCCN2CCN(CC(=O)Nc3cc(C4CCC(=O)NC4=O)ccn3)[C@@H](C(F)(F)F)C2)CC1` (stereo partly drawn) [Cmpd 20, 2-((R)-4-(3-((trans)-4-(3-(4-Cyano-3-(trifluoromethyl)phenyl)-5,5-dimethyl-4-oxo-2-thioxoimidazolidin-1-yl)cyclohexyl)propyl)-2-(trifluoromethyl)piperazin-1-yl)-N-(4-(2,6-dioxopiperidin-3-yl)pyridin-2-yl)acetamide], the 50% degradation concentration (DC50) lay within 5 to 50 nM and the Y entry is listed as “** (20%<Y≤40%)”.

For the compound `CC1(C)C(=O)N(c2cnc(C#N)c(C(F)(F)F)c2)C(=S)N1[C@H]1CC[C@H](CCCN2CCN(CC(=O)Nc3cc(C4CCC(=O)NC4=O)ccn3)[C@@H](C(F)(F)F)C2)CC1` (stereo partly drawn) [Cmpd 23, 2-((R)-4-(3-((trans)-4-(3-(6-Cyano-5-(trifluoromethyl)pyridin-3-yl)-5,5-dimethyl-4-oxo-2-thioxoimidazolidin-1-yl)cyclohexyl)propyl)-2-(trifluoromethyl)piperazin-1-yl)-N-(4-(2,6-dioxopiperidin-3-yl)pyridin-2-yl)acetamide], the DC50 lay in the range of 5 to 50 nM and the Y entry was “* (0<Y≤20%)”.

For the compound `C[C@@H]1C[C@H](OCCO[C@H]2CC[C@H](N3C(=S)N(c4cnc(C#N)c(C(F)(F)F)c4)C(=O)C3(C)C)CC2)C[C@H](C)N1CC(=O)Nc1cc(C2CCC(=O)NC2=O)ccn1` (stereo partly drawn) [Cmpd 26, 2-((2R,4r,6S)-4-(2-(((trans)-4-(3-(6-Cyano-5-(trifluoromethyl)pyridin-3-yl)-5,5-dimethyl-4-oxo-2-thioxoimidazolidin-1-yl)cyclohexyl)oxy)ethoxy)-2,6-dimethylpiperidin-1-yl)-N-(4-(2,6-dioxopiperidin-3-yl)pyridin-2-yl)acetamide], the DC50 is no more than 5 nM and the Y result is reported as “** (20%<Y≤40%)”.

For the compound `CC1(C)C(=O)N(c2ccc(C#N)c(C(F)(F)F)c2)C(=S)N1[C@H]1CC[C@H](OCCN2CCN(CC(=O)Nc3cc(C4CCC(=O)NC4=O)ccn3)[C@@H](C(F)(F)F)C2)CC1` (stereo partly drawn) [Cmpd 21, 2-((R)-4-(2-(((trans)-4-(3-(4-Cyano-3-(trifluoromethyl)phenyl)-5,5-dimethyl-4-oxo-2-thioxoimidazolidin-1-yl)cyclohexyl)oxy)ethyl)-2-(trifluoromethyl)piperazin-1-yl)-N-(4-(2,6-dioxopiperidin-3-yl)pyridin-2-yl)acetamide], the half-maximal degradation concentration (DC50) fell in the range of 5 to 50 nM and the Y entry is recorded as “* (0<Y≤20%)”.

`C[C@@H]1CN(CCO[C@H]2CC[C@H](N3C(=S)N(c4ccc(C#N)c(C(F)(F)F)c4)C(=O)C3(C)C)CC2)C[C@H](C)N1CCCOc1cc(C2CCC(=O)NC2=O)ccn1` (stereo partly drawn) [Cmpd 16, 4-(3-(trans-4-(2-((3R,5S)-4-(3-((4-(2,6-Dioxopiperidin-3-yl)pyridin-2-yl)oxy)propyl)-3,5-dimethylpiperazin-1-yl)ethoxy)cyclohexyl)-4,4-dimethyl-5-oxo-2-thioxoimidazolidin-1-yl)-2-(trifluoromethyl)benzonitrile hydrochloride]: the 50% degradation concentration (DC50) was 50 to 200 nM and the Y entry was “*** (40%<Y<80%)”.

In the case of `CC1(C)C(=O)N(c2cnc(C#N)c(C(F)(F)F)c2)C(=S)N1[C@H]1CC[C@H](OCCCN2CCN(CC(=O)Nc3cc(C4CCC(=O)NC4=O)ccn3)[C@@H](C(F)(F)F)C2)CC1` (stereo partly drawn) [Cmpd 25, 2-((R)-4-(3-(((trans)-4-(3-(6-Cyano-5-(trifluoromethyl)pyridin-3-yl)-5,5-dimethyl-4-oxo-2-thioxoimidazolidin-1-yl)cyclohexyl)oxy)propyl)-2-(trifluoromethyl)piperazin-1-yl)-N-(4-(2,6-dioxopiperidin-3-yl)pyridin-2-yl)acetamide], the DC50 was no more than 5 nM and the Y result is listed as “* (0<Y≤20%)”.

`C[C@@H]1CN(CCO[C@H]2CC[C@H](N3C(=S)N(c4ccc(C#N)c(C(F)(F)F)c4)C(=O)C3(C)C)CC2)C[C@H](C)N1CCCOc1ccc(N2CCC(=O)NC2=O)cn1` [Cmpd 12, 4-(3-(trans-4-(2-((3R,5S)-4-(3-((5-(2,4-Dioxotetrahydropyrimidin-1(2H)-yl)pyridin-2-yl)oxy)propyl)-3,5-dimethylpiperazin-1-yl)ethoxy)cyclohexyl)-4,4-dimethyl-5-oxo-2-thioxoimidazolidin-1-yl)-2-(trifluoromethyl)benzonitrile hydrochloride]: the DC50 was greater than 200 nM and the Y entry is “*** (40%<Y<80%)”.

As for `C[C@@H]1CN(CCCC[C@H]2CC[C@H](N3C(=S)N(c4ccc(C#N)c(C(F)(F)F)c4)C(=O)C3(C)C)CC2)C[C@H](C)N1CC(=O)Nc1cc(C2CCC(=O)NC2=O)ccn1` (stereo partly drawn) [Cmpd 14, 2-((2R,6S)-4-(4-(trans-4-(3-(4-Cyano-3-(trifluoromethyl)phenyl)-5,5-dimethyl-4-oxo-2-thioxoimidazolidin-1-yl)cyclohexyl)butyl)-2,6-dimethylpiperazin-1-yl)-N-(4-(2,6-dioxopiperidin-3-yl)pyridin-2-yl)acetamide hydrochloride], the 50% degradation concentration (DC50) was in the range of 5 to 50 nM and the Y entry was “* (0<Y≤20%)”.

Take `C[C@@H]1CN(CCCC[C@H]2CC[C@H](N3C(=S)N(c4ccc(C#N)c(C(F)(F)F)c4)C(=O)C3(C)C)CC2)C[C@H](C)N1CC(=O)Nc1ccc(C2CCC(=O)NC2=O)cn1` (stereo partly drawn) [Cmpd 19, 2-((2R,6S)-4-(4-((trans)-4-(3-(4-Cyano-3-(trifluoromethyl)phenyl)-5,5-dimethyl-4-oxo-2-thioxoimidazolidin-1-yl)cyclohexyl)butyl)-2,6-dimethylpiperazin-1-yl)-N-(5-(2,6-dioxopiperidin-3-yl)pyridin-2-yl)acetamide]: the half-maximal degradation concentration (DC50) was no more than 5 nM and the Y result was “* (0<Y≤20%)”.

Take `C[C@@H]1CN(CCO[C@H]2CC[C@H](N3C(=S)N(c4ccc(C#N)c(C(F)(F)F)c4)C(=O)C3(C)C)CC2)C[C@H](C)N1CCOc1cc(C2CCC(=O)NC2=O)ccn1` (stereo partly drawn) [Cmpd 15, 4-(3-(trans-4-(2-((3R,5S)-4-(2-((4-(2,6-Dioxopiperidin-3-yl)pyridin-2-yl)oxy)ethyl)-3,5-dimethylpiperazin-1-yl)ethoxy)cyclohexyl)-4,4-dimethyl-5-oxo-2-thioxoimidazolidin-1-yl)-2-(trifluoromethyl)benzonitrile hydrochloride]: the DC50 fell in the range of 5 to 50 nM and the Y entry is “*** (40%<Y<80%)”.
